Reference: US20210121482A1, “WITHANOLIDES FOR THE TREATMENT OF CACHEXIA” (University of Louisville Research Foundation, Inc., priority 2019, published 2021)

Columns and labels:
[1] = system: inflammatory cytokines and NLRP3 inflammasome markers in TA muscle; assay: qPCR of TA muscle; format: in vivo, Mus musculus
Method: (§1) Total RNA Extraction and qPCR: Isolation of total RNA from xenografted tumor samples was performed using an RNeasy® Mini Kit (Qiagen Catalog #74104) according to the manufacturer's instructions. Isolation of total RNA from skeletal muscle was performed using an RNeasy® Fibrous Tissue Mini Kit (Qiagen Catalog #74704) according to the manufacturer's instructions. First strand cDNA was synthesized using 1 μg of purified RNA and a commercially available kit (iScript™ cDNA synthesis, Bio-Rad Catalog #170-8891), Quantification of mRNA expression was performed similar to as previously described (Hindi and Kumar, 2016) using the SYBR Green dye method on a StepOnePlus™ system (Applied Biosystems) using gene-specific primers, as shown in Table 1.

[2] = system: TNFα, IFNγ, IL-6, IL-8, IL-18 in tumor samples; assay: Human MAP multiplex assay of tumor samples; format: in vivo; settings: vs vehicle treated group
Description: Samples were minced on ice with sterilized scissors.

[3] = system: Caspase 1, NLRP3, IL-1β, IL-18, HO-1; assay: IHC of NLRP3 inflammasome proteins in tumor samples; format: in vivo, mice
Method: Immunohistochemistry of Tumor Tissue: For the detection of various proteins, 10 μm thick sections were made from the midsection of tumor samples. A hydrophobic boundary was drawn around the sections and then they were fixed in 3.7% formaldehyde solution for 10 minutes. The slides were washed three times with 1×PBS for 5 minutes each. The sections were then blocked in 2% BSA in PBS for 30 minutes. The sections were then incubated with primary antibodies (1:100 dilution) overnight in a humidity chamber at 4° C. The sections were then washed three times with 1×PBS for 5 minutes. The slides were incubated in appropriate secondary antibodies (1:2000 dilution) for 45-60 minutes. Sections were counterstained with DAPI (1:2500 dilution) for 5 minutes to visualize nuclei. Slides were then washed twice in 1×PBS for 5 minutes, and then mounted for visualization. Nonspecific background staining was determined by performing the above protocol with omitting the inclusion of the primary antibodies. Refer to Table 2 for a complete list of antibodies utilized.

TA, GA and QF muscles = assay: Muscle mass and TA myofiber CSA (Example 2); format: in vivo, mice
Description: Histology and Morphometric Analysis of Skeletal Muscle: Select muscles of the lower limb of the mice were isolated, flash frozen in liquid nitrogen, mounted in O.C.T. embedding medium, and then sectioned using a microtome cryostat. To assess tissue morphology, 10 μm thick transverse sections were cut from the mid-belly of the tibialis anterior (TA) and then subjected to Hematoxylin and Eosin (H&E) staining. Images of H&E-stained TA muscle sections were quantified using Fiji software (National Institute of Health software) to measure myofiber cross-sectional area (CSA). Skeletal myofiber CSA was calculated by analyzing ˜500-700 myofibers per muscle as previously described (32).
Post-mortem, select muscles of the lower extremities, including tibialis anterior (TA), gastrocnemius (GA), and quadriceps femoris (QF), were collected and weighed to detect changes in muscle mass, with results shown in FIG. 14A-14C, respectively. Muscle weights were normalized by the initial body weight (I.B.W.) to account for differences in the size of the mouse/muscle at baseline, while excluding the confounding effect of tumor burden on body weight.

[4] = system: Pax7, Myod1, UPR, UPS and ALS markers in GA muscle; assay: qPCR of GA muscle (Pax7, Myod1, UPR, UPS, ALS markers); format: in vivo, Mus musculus
Method: as §1
Total RNA Extraction and qPCR: as in Example 1.

[5] = system: A2780 ovarian cancer cells; assay: Tumor burden: free peritoneal tumors and bilateral ovaries (Example 3); format: in vivo, mice; settings: tumor-bearing
Description: Experimental tumors were induced as described in Example 2.
No significant difference in tumor weight between the two doses of WFA was observed (p=0.65).
The IP tumors were metastasized to select organs/anatomic regions known to be highly estrogen-responsive, including free-peritoneal tumors shown in FIG. 19D and bilateral ovaries shown in FIG. 19E.

Ang II = assay: Plasma Ang II ELISA; format: in vivo, mice; settings: tumor-bearing
Method: Plasma Ang II levels were measured with an enzyme-linked immunosorbent assay (ELISA). Blood samples were collected in tubes containing ethylenediaminetetraacetic acid (EDTA) (25 mM), o-phenanthroline (0.44 mM), pepstatin A (0.12 mM), and p-hydroxymercuribenzoic acid (1 mM) and then centrifuged at 1200×g for 10 min. The plasma was collected and stored at −80° C. until further processing. Ang II levels were quantified by using a commercially available ELISA kit according to the manufacturer's instructions (Sigma-Aldrich Catalog #MAK190).

[6] = 2 mg/kg, vs vehicle treated group
[7] = 6 mg/kg, vs vehicle treated group
[8] = tumor-bearing, 2 mg/kg, vs tumor-bearing vehicle
[9] = tumor-bearing, 4 mg/kg, vs tumor-bearing vehicle
[10] = tumor-bearing, 2 and 4 mg/kg, vs tumor-bearing vehicle
[11] = tumor-free, 4 mg/kg, vs tumor-free vehicle
[12] = tumor-free, WFA-treated groups vs vehicle-treated

SMILES: CC1=C(CO)C(=O)O[C@@H]([C@@H](C)[C@H]2CC[C@H]3[C@@H]4C[C@H]5O[C@]56[C@@H](O)C=CC(=O)[C@]6(C)[C@H]4CC[C@]23C)C1 [WFA, (4β,5β,6β,22R)-4,27-Dihydroxy-5,6:22,26-diepoxyergosta-2,24-diene-1,26-dione]
- relative mRNA levels of TNFα, IFNγ, IL-6, MIP-2 in TA muscle [1, 6]: significantly reduced
- transcript levels of HO-1 in TA muscle [1, 6]: increased compared to the vehicle treated group
- transcript levels of NLRP3, CASP1, IL-1β, IL-18 in TA muscle [1, 6]: significant reduction in all tested NLRP3 inflammasome transcript levels
- relative mRNA levels of TNFα, IFNγ, IL-6, MIP-2 in TA muscle ([1]; 6 mg/kg, vs control and WFA 2 mg/kg groups): robust increase in the expression of select proinflammatory cytokines
- transcript levels of CASP1 and IL-1β in TA muscle ([1]; 6 mg/kg, vs control group): significantly increased
- transcript levels of HO-1 in TA muscle ([1]; 6 mg/kg, vs control or vehicle treated groups): no significant changes in HO-1 expression
- relative mRNA levels of NLRP3 and IL-18 in TA muscle [1, 7]: significantly reduced
- relative transcript levels of IFNγ and MIP-2 in TA muscle [1, 7]: significantly reduced
- relative transcript levels of TNFα and IL-6 in TA muscle ([1]; 6 mg/kg, vs vehicle treated group (p=0.09 and <0.0001)): increased
- cytokine levels of IL-18 in tumor (multiplex) ([2]; 2 and 6 mg/kg): significant reduction in the cytokine levels of IL-18
- levels of TNFα, IFNγ, IL-6, IL-8 in tumor (multiplex) ([2]; high dose (6 mg/kg)): mixed result of up- and downregulation of proinflammatory cytokines
- levels of TNFα, IFNγ, IL-6, IL-8 in tumor (multiplex) ([2]; low dose (2 mg/kg)): significantly reduced the expression of all proinflammatory cytokines tested
- expression of IL-1β, IL-18 and HO-1 in tumor (IHC) ([3]; 2 mg/kg): drastically lowered the expression of IL-1β and IL-18 and increased the expression of HO-1
- expression of IL-1β, IL-18 and HO-1 in tumor (IHC) ([3]; 6 mg/kg): intermediate expression of all three proteins
- Caspase 1 and NLRP3 staining in tumor (IHC) ([3]; 2 and 6 mg/kg, vs vehicle treated group): reduction in Caspase 1 and NLRP3 staining
- normalized wet weight of TA and GA muscles (TA, GA and QF muscles; tumor-bearing, 2 and 4 mg/kg, vs vehicle-treated): statistically significant increase in normalized wet weight of the TA and GA muscles
- average myofibrillar cross-sectional area (CSA) in TA muscle (TA, GA and QF muscles; tumor-bearing, WFA 2 mg/kg): 1629.72±94.96 μm2
- average myofibrillar cross-sectional area (CSA) in TA muscle (TA, GA and QF muscles; tumor-bearing, WFA 4 mg/kg): 1748.13±68.90 μm2
- normalized weight of TA, GA and QF muscles (TA, GA and QF muscles; tumor-free, 4 mg/kg, vs vehicle-treated, normalized by initial body weight): significant increase in normalized weight of the TA, GA, and QF muscles
- average myofibrillar cross-sectional area (CSA) in TA muscle (TA, GA and QF muscles; tumor-free, WFA 2 mg/kg): 1916.39±85.72 μm2
- average myofibrillar cross-sectional area (CSA) in TA muscle (TA, GA and QF muscles; tumor-free, WFA 4 mg/kg): 1904.98±80.50 μm^2
- relative transcript levels of Ddit3 in GA muscle [4, 8]: upregulation of relative transcript levels of Ddit3
- relative transcript levels of Ern1 in GA muscle [4, 8]: no significant difference in relative transcript levels of Ern1
- transcript levels of Eif2ak3, Atf4, Pppr1r15a, Hspa5, Hsp90B1, Tnfrsf10B in GA muscle [4, 8]: reduction in Eif2ak3, Atf4, Pppr1r15a, Hspa5, Hsp90B1, and Tnfrsf10B
- relative transcript levels of Ddit3 and Ern1 in GA muscle [4, 9]: significant increase in relative transcript levels of Ddit3 and Ern1
- transcript levels of Eif2ak3, Atf4, Pppr1r15a, Hspa5, Hsp90B1, Tnfrsf10B in GA muscle [4, 9]: decrease in relative transcript levels of Eif2ak3, Atf4, Pppr1r15a, Hspa5, Hsp90B1, and Tnfrsf10B
- relative mRNA expression of Sqstm1, Map1lc3b, Becn1 [4, 10]: significant dose-dependent reduction in relative mRNA expression of the select ALS markers
- transcription of Fbxo30, Fbxo32, Trim63, Traf6 [4, 10]: statistically significant dose-dependent transcriptional downregulation of Fbxo30, Fbxo32, Trim63, and Traf6
- relative transcript levels of Pax7 and Myod1 in GA muscle ([4]; tumor-free and tumor-bearing WFA-treated groups): significant increases in both Pax7 and Myod1
- relative transcriptional expression of Fbxo30 and Traf6 ([4]; tumor-free, 2 mg/kg, vs vehicle-treated): significant reduction in the relative transcriptional expression of Fbxo30 and Traf6
- relative gene expression of Fbxo30, Fbxo32, Trim63, Traf6 [4, 11]: significant reduction in relative gene expression of Fbxo30, Fbxo32, Trim63, and Traf6
- relative gene expression of Sqstm1, Map1lc3b, Becn1 [4, 11]: significant reduction in relative gene expression
- transcript levels of Atf4 and Tnfrsf10B in GA muscle [4, 12]: no change in transcript levels of Atf4 and Tnfrsf10B
- transcript levels of Eif2ak3, Ddit3, Pppr1r15a, Ern1 in GA muscle [4, 12]: transcriptional upregulation of Eif2ak3, Ddit3, Pppr1r15a, and Ern1
- transcript levels of Hspa5 and Hsp90B1 in GA muscle [4, 12]: downregulation of Hspa5 and Hsp90B1
- normalized weights of the bilateral ovaries ([5]; WFA 2 mg/kg): 10.38±1.32 mg/g IBW
- weight of visible tumors ([5]; WFA 2 mg/kg): 1.6 ± 0.19 g
- normalized weights of the bilateral ovaries ([5]; WFA 4 mg/kg): 12.05±2.09 mg/g IBW
- weight of visible tumors ([5]; WFA 4 mg/kg): 1.9 ± 0.35 g
- plasma Ang II levels (Ang II; WFA 2 mg/kg): 2.15 ± 0.015 ng/mL
- plasma Ang II levels (Ang II; WFA 4 mg/kg): 2.07 ± 0.08 ng/mL
